Values quoted from earlier work in patent US20230117236A1 (priority 2021, published 2023).

Tested on: SARS-CoV-2
Settings: treatment with 24 ppm of chlorine dioxide; within 10 seconds

In the case of `[O][Cl+][O-]` [chlorine dioxide], the SARS-CoV-2 inactivated is listed as “more than 99.99%”.
